Laboratory results from patent US8163702B2, “Treatment of melanoma” (SciClone Pharmaceuticals, Inc., priority 2006, dated 2012).
Where “and” joins values, the source holds several entries; their conditions need not be identical. Equal entries are not always repeated.

Columns and labels:
[1] = tested on: B16 melanoma; experiment: B16 melanoma tumor growth, tumor weight and survival in C57/Bl6 mice, i.p. treatment (Example 1); format: in vivo; conditions: DTIC 50 mg/kg i.p.
Protocol: Tumors were induced by injecting 1×10^6 B16 melanoma cells subcutaneously in the hind leg of C57/Bl6 syngeneic mice. Mice were randomized into 5 groups of 10 animals and treated with SCV-07 at doses of 0.001, 0.01, or 0.10 mg/kg administered daily i.p. for 3 consecutive days for 2 weeks, starting 3 days after tumor implantation. Control groups were treated with saline or dacarbazine (DTIC) at a dose of 50 mg/kg i.p. for 3 days. Tumor growth was assessed every 3 days by a caliper and tumor weight was measured upon death.
Mice were injected with B16 melanoma cells and divided into 5 groups of 10 mice each. Control mice were given injections of saline or dacarbazine (DTIC). The effects of different doses of SCV-07 were examined with respect to tumor growth rate and survival time.

[2] = tested on: murine B16 melanoma; experiment: Antitumor effect in murine B16 melanoma model, tumor size and tumor weight (Example 2); format: in vivo, C57BL/6 mice; conditions: for Tumor volumes (cm^3) on Day 15: Length × Width × Width/2; for Tumor measurements L / Tumor measurements W / Tumor volumes: DTIC 50 mg/kg
Protocol: As per aseptic tissue culture procedures, one vial of B16 melanoma cells (supplied by Cell Culture Center of CAMS) was thawed and centrifuged at 1000 rpm, 20-25° C. for 5 minutes. The cell pellets were suspended in 0.1-0.5 mL normal saline (NS) and subcutaneously injected into the right axilla of each mouse (approximately 1×10^6 cells/mouse). When the tumor diameter was 1 cm approximately (measured by vernier caliper), the animals were euthanized with CO2 asphyxiation and the tumor was excised. Tumor cells were suspended in normal saline as previously described and the cell adaptation cycle was repeated once.
On Day 0, 1×10^6 B16 cells in a volume of 0.1 mL normal saline were subcutaneously injected into the right axillary area of the mouse. The day of tumor inoculation was defined as Day 0.
Dosing was initiated on Day 1.
Observations were recorded daily for mortality and moribundity. […] The tumors were excised, separated, and weighed.
Tumor volume was calculated using the following formula: Tumor Volume=Length×Width×Width/2 Tumor volume inhibition rate (IR) was calculated according to the formula: IR(TV)=(TVvehicle−TVdrug treated)/TVvehicle×100% TV is the tumor volume on the day of measurement.
The antitumor effect of the test article was also evaluated by tumor weight. The tumor weight of each mouse was recorded after euthanasia, and the inhibition rate of tumor weight was calculated according to the formula: IR(TW)=(Tumor weightvehicle−Tumor weightdrug treated)/Tumor weightvehicle×100%

[3] = DTIC 50 mg/kg (Group 2), Day 15, individual animals F1-F5, M1-M5

## CN(C)/N=N/c1[nH]cnc1C(N)=O [DTIC, Dacarbazine, reference compound]
[1]; DAY 10 after tumor inoculation
  MEAN TUMOR VOLUME: 480 ± 13 mm^3
[1]; DAY 17 after tumor inoculation
  MEAN TUMOR VOLUME: 545 ± 170 mm^3
[1]; DAY 24
  DAY 24 % of control (inhibition in tumor growth): 19%
[1]; DAY 24 after tumor inoculation
  MEAN TUMOR VOLUME: 760 ± 220 mm^3
[1]
  mean tumor weight lower: 15%
[2]; DTIC 50 mg/kg (Group 2), Day 15, individual animals F1-F5, M1-M5, female animals
  Tumor volumes (cm^3) on Day 15: 0.36 cm^3 and 0.15 cm^3 and 0.11 cm^3 and 0.01 cm^3
[2]; DTIC 50 mg/kg (Group 2), Day 15, individual animals F1-F5, M1-M5, male animals
  Tumor volumes (cm^3) on Day 15: 0.03 cm^3 (2×) and 0.06 cm^3 and 0.17 cm^3 and 0.01 cm^3
[2]; [3]
  Tumor measurements (cm) on Day 15, L: 0.3 cm (2×) and 0.4 cm (2×) and 0.7 cm and 0.9 cm and 0.5 cm and 1.2 cm and 0.6 cm
  Tumor measurements (cm) on Day 15, W: 0.3 cm (2×) and 0.4 cm (2×) and 0.7 cm and 0.5 cm (2×) and 0.9 cm and 0.6 cm
[2]; DTIC 50 mg/kg (Group 2), Day 17, individual animals F1-F5, M1-M5, female animals
  Tumor weights (g) on Day 17: 0.70 g and 0.29 g and 0.98 g and 0.78 g and 0.5 g
[2]; DTIC 50 mg/kg (Group 2), Day 17, individual animals F1-F5, M1-M5, male animals
  Tumor weights (g) on Day 17: 0.46 g and 0.54 g and 0.37 g and 0.915 g and 0.18 g
[2]; Day 3, DTIC 50 mg/kg/day, not measurable defined as 0
  Tumor Volume (Mean ± SD): 0 cm^3
[2]; Day 6, DTIC 50 mg/kg/day, not measurable defined as 0
  Tumor Volume (Mean ± SD): 0 cm^3
[2]; Day 9, DTIC 50 mg/kg/day
  IR (tumor volume inhibition rate): 96.9%
  Tumor Volume (Mean ± SD): 0.001 ± 0.004 cm^3
[2]; Day 9, mouse F2
  Tumor measurements L: 0.3 cm
  Tumor measurements W: 0.3 cm
  Tumor volumes: 0.01 cm^3
[2]; Day 12, DTIC 50 mg/kg/day
  IR (tumor volume inhibition rate): 98.8%
  Tumor Volume (Mean ± SD): 0.009 ± 0.020 cm^3
[2]; Day 12, mouse F1
  Tumor measurements L: 0.3 cm
  Tumor measurements W: 0.3 cm
  Tumor volumes: 0.01 cm^3
[2]; Day 12, mouse F3
  Tumor measurements L: 0.1 cm
  Tumor measurements W: 0.1 cm
  Tumor volumes: 5E−04 cm^3
[2]; Day 12, mouse F4
  Tumor measurements L: 0.3 cm
  Tumor measurements W: 0.3 cm
  Tumor volumes: 0.01 cm^3
[2]; Day 12, mouse F5
  Tumor measurements L: 0.1 cm
  Tumor measurements W: 0.1 cm
  Tumor volumes: 5E−04 cm^3
[2]; Day 12, mouse M2
  Tumor measurements L: 0.5 cm
  Tumor measurements W: 0.5 cm
  Tumor volumes: 0.06 cm^3
[2]; Day 15, DTIC 50 mg/kg/day
  IR (tumor volume inhibition rate): 95.1%
  Tumor Volume (Mean ± SD): 0.095 ± 0.112 cm^3
[2]; Day 17, DTIC 50 mg/kg/day
  IR (inhibition rate of tumor weight): 85.0%
  Tumor Weight (Mean ± SD): 0.57 ± 0.27 g
